This note sets out measurements from patent US6875758B2, “Method of treating hyperlipidemic and hyperglycemic conditions in mammals using pregnadienols and pregnadienones” (Council of Scientific & Industrial Research, priority 1999, dated 2005).

In experiment [1] the test system is Triton treated rats. Put plainly: Cholesterol lowering in Triton treated rats. The experiment is classed as in vivo, Charles Foster rats. The source says: The primary hypolipidemic effect of these compounds was established in triton induced hyperlipidemia in Charles Foster rats. […] The cholesterol lowering effect of some representative compounds of pregrenadienols and pregrenadienones as compared to clofibrate and gugulsterone in triton treated Charles Foster rats is described in Table-2.

The subject of experiment [2] is cholesterol fed hyperlipidemic rats. Put plainly: Lipid peroxidation in cholesterol fed hyperlipidemic rats. The experiment is classed as in vivo.
Experiment [3] has as its system Human serum LDL. As to the kind of experiment: Cu2+ induced oxidation of low density lipoprotein (TBA reactive lipid peroxides). In kind it is biochemical. Conditions: for MDA (Exp.): 16 hr at 37° C., pH 7.4; for generation of LDL lipid peroxide (in words): tested concentrations. The procedure: Human serum LDL was oxidized with Cu^′2 in different concentrations of test compound in 0.05 mole PBS, pH 7.4 for 16 hr at 37° C. Thiobarbituric acid reactive lipid peroxides are measured by standard procedure. […] Cu^′2 induced oxidation in LDL lipids are mainly due to the free OH radical during incubation.

Experiment [4] can be described thus: Hydroxy (OH) radical formation in nonenzymatic system (Fe2+, ascorbate, H2O2, deoxyribose). The experiment is classed as biochemical.
Experiment [5] relates to isoproterneol induced myocardial necrosis in rat. As to the kind of experiment: Isoproterneol induced myocardial necrosis in rats. The experiment is classed as in vivo. The note with it: isoproterneol 85 mg/kg + drug 25 mg/kg p.o. The source says: The underlying cause of myocardial infarction is believed to be the progressive deposition of lipids and fibrotic material into the arterial wall. These pregnadienols and pregnadienous also provided cardiac protection as assessed in isoproterneol induced myocardial necrosis in rat model, which produces myocardial infarction due to an increased blood pressure and heart rate.

In experiment [6] the test system is streptozotocin induced diabetic rats. As to the kind of experiment: Hypoglycemic activity in streptozotocin induced hyperglycemic rats. In kind it is in vivo. The note with it: 100 mg/kg p.o. The procedure: Hyperglycemia in rats was produced by streptozotocin treatment. The animals showing blood glucose levels between 250-350 mg/dl were selected. Blood samples were collected after treatment at intervals and blood glucose levels were estimated immediately.

The test system of experiment [7] is glucose loaded rats. Put plainly: Hypoglycemic activity in glucose loaded rats. In kind it is in vivo, albino rats (Charles Foster strain). Conditions: for Blood Glucose Level: 100 mg/kg p.o. + glucose 2.0 g/kg; for % inhibition compared to control (blood glucose): 100 mg/kg. Here is the method:
The experiments were carried out with albino rats (Charles Foster strain) of either sex weighing 150-160 g. They were fed on laboratory diet prepared by M/s Lipton India Ltd. and maintained under 12 hr. light/dark cycle at 25±2° C.
The animals were divided into eight groups, each of six rats; group I was given 1% gum acacia (0.1 ml/100 g body weight) intragastrically (p.o.) and the group II were given 3β-hydroxypregna-5,16-dien-20-one (2) in 1% gum acacia. Animals of group III were given the standard antidiabetic drug, tolbutamide in the similar fashion. 2.0 g/kg glucose was given p.o. to all the rats along with the vehicle/Compound/Standard antidiabetic drug. Blood samples were taken from retroorbital plexus at periodic intervals. Glucose levels in the blood samples were measured by glucose oxidase method [Bergmeyer and Benut, 1963 cited in “Methods of Enzymatic Analysis” ed. H. Bergmeyer, Verlag Chemie, GmBH, Weinheim, Beroster, pp123, Academic press, New York].

Setting [8] is: Rattus norvegicus, ip, 50 mg/kg i.p., read-out: % Change S. Chol.

For `CC(=O)O[C@H]1CC[C@@]2(C)C(=CC[C@@H]3[C@@H]2CC[C@]2(C)C(C(C)=O)=CC[C@@H]32)C1` [Compound 1, 3β-Acetoxypregna-5,16-dien-20-one], in experiment [1] (setting [8]), the change in vivo at 50 mg/kg is -43%.

In the case of `CC(=O)C1=CCC2C3CCC4=CC(=O)CC[C@]4(C)C3CC[C@]12C` (stereo partly drawn) [Compound 3, 4,16-Dienpregna-3,20-dione], the change in vivo at 50 mg/kg in experiment [1] (setting [8]) was -13%.

As to `CC(=O)O[C@H]1CC[C@@]2(C)C(=CC[C@H]3[C@@H]4CC[C@H](C(C)=O)[C@@]4(C)CC[C@@H]32)C1` [Compound 4, 3β-Aceoxypregna-5-en-20-one], the “% Change S. Chol.” value in experiment [1] (100 mg/kg i.p.) was −12%.

Consider `CC(=O)[C@H]1CC[C@H]2[C@@H]3CC=C4C[C@@H](O)CC[C@]4(C)[C@H]3CC[C@]12C` [Compound 5, 3β-Hydroxypregna-5-en-20-one], for which the change in vivo at 100 mg/kg in experiment [1] (Rattus norvegicus, ip, 100 mg/kg i.p., read-out: % Change S. Chol.) is -9%.

In the case of `CC(O)C1=CCC2C3CC=C4CC(O)CC[C@]4(C)C3CC[C@]12C` (stereo partly drawn) [Compound 6, 5,16-Dien-pregnane-3,20-diol], the change in vivo at 50 mg/kg in experiment [1] (setting [8]) was -10%.

For `CC=C1C(OC(C)=O)C[C@H]2[C@@H]3CC=C4CC(OC(C)=O)CC[C@]4(C)[C@H]3CC[C@]12C` (stereo partly drawn) [Compound 7, 5,17(20)-Dienpregna-3,16-diol-diacetate], the “% Change S. Chol.” value in experiment [1] (50 mg/kg i.p.) is −33%.

Turning to `C/C=C1/C(O)CC2C3CC=C4CC(O)CC[C@]4(C)C3CC[C@]12C` (stereo partly drawn) [Compound 8, 5,17(20)-Dienpregna-3,16-diol], the change in vivo at 50 mg/kg in experiment [1] (setting [8]) is -31%.

As for `C/C=C1/C(=O)CC2C3CCC4=CC(=O)CC[C@]4(C)C3CC[C@]12C` (stereo partly drawn) [Compound 9, Gugulsterone, reference compound], in experiment [1] (setting [8]), the change in vivo at 50 mg/kg is -44%.

Take `Cc1ccc(C)c(OCCCC(C)(C)C(=O)O)c1` [Gemfibrozil, reference compound]: in experiment [2] (cholesterol + drug 25 mg/kg), the HDL lipid peroxides is on record as 134 ± 13 n mol MDA/dl, the “HDL lipid peroxides % reversal as compared with cholesterol fed rats” value is “(−3) %”, the LDL lipid peroxides was determined as 568 ± 62 n mol MDA/dl and the “LDL lipid peroxides % reversal as compared with cholesterol fed rats” value is “(−6) %”. In experiment [2] (cholesterol + drug 25 mg/kg), the Liver lipid peroxides stood at 253 ± 26 n mol MDA/g, the “Liver lipid peroxides % reversal as compared with cholesterol fed rats” value is “(−8) %”, the Serum lipid peroxides is on record as 1161 ± 74 n mol MDA/dl and the “Serum lipid peroxides % reversal as compared with cholesterol fed rats” value is on record as “(−5) %”. For the same compound, in experiment [2] (cholesterol + drug 25 mg/kg), the VLDL lipid peroxides is 346 ± 10 n mol MDA/dl and the “VLDL lipid peroxides % reversal as compared with cholesterol fed rats” value is reported as “(−9) %”. Besides, the “lipid peroxide levels in serum VLDL, LDL and liver (in words)” value in experiment [2] (cholesterol fed animals, simultaneous treatment) is reported as “failed to protect”. Further, in experiment [3] (2.5 μmol/ml), the “MDA (Exp.)” value was determined as 53.0 ± 6.0 n mol MDA/mg protein. In addition, in experiment [3] (5.0 μmol/ml), the “% inhibition of LDL oxidation” value is recorded as “(5) %” and the “MDA (Exp.)” value is given as 48.8 ± 6.7 n mol MDA/mg protein. Besides, the “MDA (Exp.)” value in experiment [3] (10.0 μmol/ml) amounted to 43.8 ± 4.9 n mol MDA/mg protein. Besides, in experiment [3] (20 μmol/ml), the “% inhibition of LDL oxidation” value is on record as “(16) %” and the “MDA (Exp.)” value came out at 41.4 ± 5.0 n mol MDA/mg protein. The “generation of LDL lipid peroxide (in words)” value in experiment [3] is reported as “did not inhibit”. Further, in experiment [4] (5 μmol/ml), the “% inhibition of OH radical formation” value is “(4) %” and the OH radical formation amounted to 79.9 ± 6.8 nmol MDA/hr. In addition, in experiment [4] (10 μmol/ml), the “% inhibition of OH radical formation” value is listed as “(5) %” and the OH radical formation came out at 78.5 ± 8.0 nmol MDA/hr. In addition, in experiment [4] (20 μmol/ml), the “% inhibition of OH radical formation” value is given as “(8) %” and the OH radical formation is 76.8 ± 7.4 nmol MDA/hr. In experiment [4] (30 μmol/ml), the “% inhibition of OH radical formation” value was “(8) %” and the OH radical formation was 76.4 ± 3.8 nmol MDA/hr. In addition, in experiment [4] (40 μmol/ml), the “% inhibition of OH radical formation” value was “(11) %” and the OH radical formation turned out to be 74.3 ± 6.3 nmol MDA/hr. Besides, in experiment [4] (50 μmol/ml), the “% inhibition of OH radical formation” value is recorded as “(13) %” and the OH radical formation amounted to 72.4 ± 8.0 nmol MDA/hr. In experiment [5], the “Heart Ca. - ATPase % Protection” value came out at 30.2%, the “Heart Glycogen % Protection” value was 32.1%, the “Heart Lipid peroxide % Protection” value came out at 69.8% and the “Heart Phospholipase % Protection” value was 28.2%. Also, in experiment [5], the “Serum Alkaline Phosphatase % Protection” value is on record as 41.2%, the “Serum CPK % Protection” value is 33.9%, the “Serum GOT % Protection” value is reported as 24.9% and the “Serum GPT % Protection” value turned out to be 33.4%.

Take `CCCCNC(=O)NS(=O)(=O)c1ccc(C)cc1` [Tolbutamide, reference compound]: the Blood Glucose Level is 292 ± 10 mg/dL in experiment [6] (0 hr); 332 ± 26 mg/dL in experiment [6] (24 hr); 38.15 ± 2.02 mg/dL in experiment [7] (0 min); 76.31 ± 6.29 mg/dL in experiment [7] (30 min); 27.26 ± 3.1 mg/dL in experiment [7] (60 min); 24.64 ± 1.92 mg/dL in experiment [7] (90 min). Moreover, the “Blood Glucose Level” value in experiment [7] (120 min) worked out at 23.07 ± 3.11 mg/dL. For the same compound, the “% lowering from zero hour value (blood glucose)” value in experiment [6] (1 hr) is on record as “(25.3) %”; in experiment [6] (2 hr) it was “(29.1) %”; in experiment [6] (3 hr), “(30.8) %”; in experiment [6] (4 hr), “(33.2) %”; in experiment [6] (5 hr) it was “(37.3) %”; in experiment [6] (6 hr) it was “(40.4) %”. The “% lowering from zero hour value (blood glucose)” value is listed as “(34.2) %” in experiment [6] (7 hr) and “(17.1) %” in experiment [6] (8 hr). Besides, in experiment [7] (100 mg/kg p.o. + glucose), the “Maximum Blood Glucose Change” value was −41.7%. The “% inhibition compared to control (blood glucose)” value in experiment [7] (30 min) is given as “(35) %”; in experiment [7] (60 min), “(100) %”; in experiment [7] (90 min), “(100) %”; in experiment [7] (120 min), “(100) %”.

`Cc1c(C)c2c(c(C)c1O)CC[C@@](C)(CCC[C@H](C)CCC[C@H](C)CCCC(C)C)O2` [α-Tocopherol]: the “% inhibition of LDL oxidation” value is given as “(3) %” in experiment [3] (0.25 μmol/ml), “(13) %” in experiment [3] (0.5 μmol/ml) and “(51) %” in experiment [3] (2.0 μmol/ml). In addition, the “MDA (Exp.)” value in experiment [3] (0.25 μmol/ml) turned out to be 44.7 ± 4.5 n mol MDA/mg protein; in experiment [3] (0.5 μmol/ml), 41.6 ± 4.0 n mol MDA/mg protein; in experiment [3] (1.0 μmol/ml) it was 35.0 ± 3.8 n mol MDA/mg protein; in experiment [3] (2.0 μmol/ml) it was 24.3 ± 2.0 n mol MDA/mg protein. Further, the “generation of LDL lipid peroxide (in words)” value in experiment [3] is “inhibit the generation of LDL lipid peroxide in concentration dependent manner”. Besides, the “% inhibition of OH radical formation” value is on record as “(23) %” in experiment [4] (1 μmol/ml); “(42) %” in experiment [4] (2 μmol/ml); “(59) %” in experiment [4] (3 μmol/ml); “(65) %” in experiment [4] (4 μmol/ml); “(73) %” in experiment [4] (5 μmol/ml). In addition, the OH radical formation in experiment [4] (1 μmol/ml) was 60.4 ± 7.0 nmol MDA/hr; in experiment [4] (2 μmol/ml), 45.2 ± 3.3 nmol MDA/hr; in experiment [4] (3 μmol/ml) it was 32.4 ± 3.5 nmol MDA/hr; in experiment [4] (4 μmol/ml) it was 27.1 ± 2.8 nmol MDA/hr; in experiment [4] (5 μmol/ml), 20.9 ± 2.0 nmol MDA/hr.
